Assay results taken from US10626144B2, “Peptide derivatives and uses thereof” (Nosopharm, priority 2014, dated 2020).
Read-outs that look alike come from different tables or passages of the source. Square brackets hold non-standard residues; d marks the D form. Peptide text beside a SMILES is read from it. * marks the point of attachment. Dab(3S-OH) = NC[C@H](O)[C@H](N)C(=O)O; Gly(cPent) = N[C@H](C(=O)O)C1CCCC1; ΔZArg = N=C(N)NCC/C=C(\N)C(=O)O; Gly(cPr) = N[C@H](C(=O)O)C1CC1; Lys(Me) = CNCCCC[C@H](N)C(=O)O; AllylGly = C=CC[C@H](N)C(=O)O; NMeK = CN[C@@H](CCCCN)C(=O)O; dOrn = NCCC[C@@H](N)C(=O)O; hSer = N[C@@H](CCO)C(=O)O; Pra = C#CC[C@H](N)C(=O)O; Dab = NCC[C@H](N)C(=O)O; Dap = NC[C@H](N)C(=O)O; NH(CH2)4NH2 = NCCCCN*

How the values were obtained:
[1] = test system: Staphylococcus aureus ATCC 13709; assay: MIC, broth microdilution (CLSI), reference strain; conditions: CAMHB
[2] = test system: Pseudomonas aeruginosa ATCC 27853; assay: MIC, broth microdilution (CLSI), reference strain; conditions: CAMHB
[3] = target: N-type calcium channels (Cav2.2) (Rattus norvegicus (Rat), UniProt Q02294); assay: biochemical; type: binding; conditions: rat cerebral cortex, [125I]ω-conotoxin GVIA 0.001 nM, read-out: IC50 Cav2.2
[4] = test system: Escherichia coli ATCC 25922; assay: MIC, broth microdilution (CLSI), reference strain; conditions: CAMHB
[5] = test system: Acinetobacter baumannii ATCC 19606; assay: MIC, broth microdilution (CLSI), reference strain; conditions: CAMHB
[6] = class symbol, 30 minutes at room temperature

SMILES | Sa: MIC Staphylococcus aureus ATCC 13709 [1] | Pa: MIC Pseudomonas aeruginosa ATCC 27853 [2] | IC50 [3, 6] [nM] | Ec: MIC Escherichia coli ATCC 25922 [4] | Ab: MIC Acinetobacter baumannii ATCC 19606 [5] | IC50 ([3]; value in brackets) [nM]
N=C(N)NCC/C=C(\NC(=O)[C@H](CCCCN)NC(=O)[C@H](Cc1cnc[nH]1)NC(=O)[C@@H]1CCCN1C(=O)[C@@H](CCCN)NC(=O)CNC(=O)[C@H](CCN)NC(=O)[C@@H](NC(=O)[C@@H](N)CCCCN)[C@@H](O)CN)C(=O)N[C@@H](CCCCN)C(=O)NCCCCN [21.1] (H-K[Dab(3S-OH)][Dab]G[dOrn]PHK[ΔZArg]K-{NH(CH2)4NH2}) | ++ (≤8 μg/mL) | ++ (≤8 μg/mL) | < 30 | ++ (≤8 μg/mL) | ++ (≤8 μg/mL) | –
CN[C@@H](CCCCN)C(=O)N[C@H](C(=O)N[C@H](C(=O)NCC(=O)N[C@H](CCCN)C(=O)N1CCC[C@H]1C(=O)N[C@@H](Cc1cnc[nH]1)C(=O)N[C@@H](CCCCN)C(=O)N/C(=C\CCNC(=N)N)C(=O)N[C@@H](CCCCN)C(=O)NCCCCN)[C@@H](O)CN)[C@@H](O)CN [22.3] (H-[NMeK][Dab(3S-OH)][Dab(3S-OH)]G[dOrn]PHK[ΔZArg]K-{NH(CH2)4NH2}) | ++ (≤8 μg/mL) | + (≤32 μg/mL) | < 30 | ++ (≤8 μg/mL) | + (≤32 μg/mL) | –
N=C(N)NCC/C=C(\NC(=O)[C@H](CCCCN)NC(=O)[C@H](Cc1cnc[nH]1)NC(=O)[C@@H]1CCCN1C(=O)[C@@H](CCCN)NC(=O)CNC(=O)[C@@H](NC(=O)[C@@H](NC(=O)[C@@H](N)CCCCN)[C@@H](O)CN)C1CC1)C(N)=O [213.1] (H-K[Dab(3S-OH)][Gly(cPr)]G[dOrn]PHK[ΔZArg]-NH2) | ++ (≤8 μg/mL) | − (>32 μg/mL) | – | + (≤32 μg/mL) | − (>32 μg/mL) | –
N=C(N)NCC/C=C(\NC(=O)[C@H](CCCCN)NC(=O)[C@H](Cc1cnc[nH]1)NC(=O)[C@@H]1CCCN1C(=O)[C@@H](CCCN)NC(=O)CNC(=O)[C@@H](NC(=O)[C@@H](NC(=O)[C@@H](N)CCCCN)[C@@H](O)CN)C1CC1)C(=O)O [213.2] (H-K[Dab(3S-OH)][Gly(cPr)]G[dOrn]PHK[ΔZArg]-OH) | + (≤32 μg/mL) | − (>32 μg/mL) | – | + (≤32 μg/mL) | − (>32 μg/mL) | –
N=C(N)NCC/C=C(\NC(=O)[C@H](CCCCN)NC(=O)[C@H](Cc1cnc[nH]1)NC(=O)[C@@H]1CCCN1C(=O)[C@@H](CCCN)NC(=O)CNC(=O)[C@H](Cc1cnc[nH]1)NC(=O)[C@@H](NC(=O)[C@@H](N)CCCCN)[C@@H](O)CN)C(N)=O [214.1] (H-K[Dab(3S-OH)]HG[dOrn]PHK[ΔZArg]-NH2) | ++ (≤8 μg/mL) | − (>32 μg/mL) | – | + (≤32 μg/mL) | − (>32 μg/mL) | –
N=C(N)NCC/C=C(\NC(=O)[C@H](CCCCN)NC(=O)[C@H](Cc1cnc[nH]1)NC(=O)[C@@H]1CCCN1C(=O)[C@@H](CCCN)NC(=O)CNC(=O)[C@H](Cc1cnc[nH]1)NC(=O)[C@@H](NC(=O)[C@@H](N)CCCCN)[C@@H](O)CN)C(=O)O [214.2] (H-K[Dab(3S-OH)]HG[dOrn]PHK[ΔZArg]-OH) | + (≤32 μg/mL) | − (>32 μg/mL) | – | − (>32 μg/mL) | − (>32 μg/mL) | –
N=C(N)NCC/C=C(\NC(=O)[C@H](CCCCN)NC(=O)[C@H](Cc1cnc[nH]1)NC(=O)[C@@H]1CCCN1C(=O)[C@@H](CCCN)NC(=O)CNC(=O)[C@H](CCCCN)NC(=O)[C@@H](NC(=O)[C@@H](N)CCCCN)[C@@H](O)CN)C(=O)O [215.1] (H-K[Dab(3S-OH)]KG[dOrn]PHK[ΔZArg]-OH) | ++ (≤8 μg/mL) | − (>32 μg/mL) | – | + (≤32 μg/mL) | − (>32 μg/mL) | –
CNCCCC[C@H](NC(=O)[C@@H](NC(=O)[C@@H](N)CCCCN)[C@@H](O)CN)C(=O)NCC(=O)N[C@H](CCCN)C(=O)N1CCC[C@H]1C(=O)N[C@@H](Cc1cnc[nH]1)C(=O)N[C@@H](CCCCN)C(=O)N/C(=C\CCNC(=N)N)C(N)=O [215.2] (H-K[Dab(3S-OH)][Lys(Me)]G[dOrn]PHK[ΔZArg]-NH2) | ++ (≤8 μg/mL) | − (>32 μg/mL) | – | ++ (≤8 μg/mL) | − (>32 μg/mL) | –
C=CC[C@H](NC(=O)[C@@H](NC(=O)[C@@H](N)CCCCN)[C@@H](O)CN)C(=O)NCC(=O)N[C@H](CCCN)C(=O)N1CCC[C@H]1C(=O)N[C@@H](Cc1cnc[nH]1)C(=O)N[C@@H](CCCCN)C(=O)N/C(=C\CCNC(=N)N)C(=O)O [216.1] (H-K[Dab(3S-OH)][AllylGly]G[dOrn]PHK[ΔZArg]-OH) | + (≤32 μg/mL) | − (>32 μg/mL) | – | − (>32 μg/mL) | − (>32 μg/mL) | –
N=C(N)NCC/C=C(\NC(=O)[C@H](CCCCN)NC(=O)[C@H](Cc1cnc[nH]1)NC(=O)[C@@H]1CCCN1C(=O)[C@@H](CCCN)NC(=O)CNC(=O)[C@H](CCCNC(=N)N)NC(=O)[C@@H](NC(=O)[C@@H](N)CCCCN)[C@@H](O)CN)C(N)=O [217.1] (H-K[Dab(3S-OH)]RG[dOrn]PHK[ΔZArg]-NH2) | ++ (≤8 μg/mL) | − (>32 μg/mL) | – | ++ (≤8 μg/mL) | − (>32 μg/mL) | –
N=C(N)NCC/C=C(\NC(=O)[C@H](CCCCN)NC(=O)[C@H](Cc1cnc[nH]1)NC(=O)[C@@H]1CCCN1C(=O)[C@@H](CCCN)NC(=O)CNC(=O)[C@@H](NC(=O)[C@@H](NC(=O)[C@@H](N)CCCCN)[C@@H](O)CN)C1CCCC1)C(N)=O [220.1] (H-K[Dab(3S-OH)][Gly(cPent)]G[dOrn]PHK[ΔZArg]-NH2) | ++ (≤8 μg/mL) | − (>32 μg/mL) | – | + (≤32 μg/mL) | − (>32 μg/mL) | –
N=C(N)NCC/C=C(\NC(=O)[C@H](CCCCN)NC(=O)[C@H](Cc1cnc[nH]1)NC(=O)[C@@H]1CCCN1C(=O)[C@@H](CCCN)NC(=O)CNC(=O)[C@H](CN)NC(=O)[C@@H](NC(=O)[C@@H](N)CCCCN)[C@@H](O)CN)C(=O)O [221.1] (H-K[Dab(3S-OH)][Dap]G[dOrn]PHK[ΔZArg]-OH) | + (≤32 μg/mL) | − (>32 μg/mL) | – | − (>32 μg/mL) | − (>32 μg/mL) | –
N=C(N)NCC/C=C(\NC(=O)[C@H](CCCCN)NC(=O)[C@H](Cc1cnc[nH]1)NC(=O)[C@@H]1CCCN1C(=O)[C@@H](CCCN)NC(=O)CNC(=O)[C@H](CCC(N)=O)NC(=O)[C@@H](NC(=O)[C@@H](N)CCCCN)[C@@H](O)CN)C(N)=O [222.1] (H-K[Dab(3S-OH)]QG[dOrn]PHK[ΔZArg]-NH2) | + (≤32 μg/mL) | − (>32 μg/mL) | – | − (>32 μg/mL) | − (>32 μg/mL) | –
C#CC[C@H](NC(=O)[C@@H](NC(=O)[C@@H](N)CCCCN)[C@@H](O)CN)C(=O)NCC(=O)N[C@H](CCCN)C(=O)N1CCC[C@H]1C(=O)N[C@@H](Cc1cnc[nH]1)C(=O)N[C@@H](CCCCN)C(=O)N/C(=C\CCNC(=N)N)C(=O)O [223.1] (H-K[Dab(3S-OH)][Pra]G[dOrn]PHK[ΔZArg]-OH) | + (≤32 μg/mL) | − (>32 μg/mL) | – | + (≤32 μg/mL) | − (>32 μg/mL) | –
N=C(N)NCC/C=C(\NC(=O)[C@H](CCCCN)NC(=O)[C@H](Cc1c[nH]cn1)NC(=O)[C@@H]1CCCN1C(=O)[C@@H](CCCN)NC(=O)CNC(=O)[C@H](CCO)NC(=O)[C@@H](NC(=O)[C@@H](N)CCCCN)[C@@H](O)CN)C(=O)O [225.1] (H-K[Dab(3S-OH)][hSer]G[dOrn]PHK[ΔZArg]-OH) | + (≤32 μg/mL) | − (>32 μg/mL) | – | − (>32 μg/mL) | − (>32 μg/mL) | –
N=C(N)NCC/C=C(\NC(=O)[C@H](CCCCN)NC(=O)[C@H](Cc1c[nH]cn1)NC(=O)[C@@H]1CCCN1C(=O)[C@@H](CCCN)NC(=O)CNC(=O)[C@@H](NC(=O)[C@@H](NC(=O)[C@@H](N)CCCCN)[C@@H](O)CN)[C@@H](O)CN)C(=O)N[C@@H](CCCCN)C(=O)NCCCCN [Odilomycin C, reference compound] (H-K[Dab(3S-OH)][Dab(3S-OH)]G[dOrn]PHK[ΔZArg]K-{NH(CH2)4NH2}; N-terminus and C-terminus assumed) | – | – | < 30 | – | – | 9
